We go through one molecule from US20240108745A1, “BIOACTIVE SUBSTANCE CONJUGATE, PREPARATION METHOD THEREFOR AND USE THEREOF” (MEDILINK THERAPEUTICS (SUZHOU) CO., LTD., priority 2021, published 2024).

SMILES strings stand for the structures.

A word on the EC50: it is the midpoint of the concentration-response curve.

What all share (type): cell-based
The subject of assay [1] is NCl-H322M cells. Description: Assay I of bioactive molecules on cell viability in vitro (CCK8). The note with it: Homo sapiens, read-out: EC50(nM), killing of NCl-H322M cells. The procedure:
(§1) Tumor cells were first cultured; the bioactive molecules of the present disclosure were co-cultured with tumor cells, and then CCK8 reagent (Dojindo Laboratories (Shanghai), Cat: CK04, Lot: JJ744) was added, and the activity of dehydrogenase in mitochondria was detected by reading (detection wavelength 450 nm) on a microplate reader (manufacturer: Molecular Devices, model: SpectraMax M2), to evaluate the inhibitory effect of bioactive molecules on cell proliferation.
(§2) In vitro cell viability assay method: bioactive molecules (12 concentration gradients) were diluted with corresponding assay medium (containing 2% FBS). The tumor cells were digested by conventional methods using trypsin, and cells in tube were collected and counted, then resuspended in the corresponding assay media (containing 2% FBS). The diluted bioactive molecules were added to a 96-well plate, followed by the cells. Then, 20 μL of CCK8 reagent was added to each well, and the reaction was carried out for 4 h, then the plate was read on a microplate reader (detection wavelength was 450 nm). The experimental results are shown in Tables 6.1, 6.2, 6.3, 6.4, and 6.5.

For assay [2], the system named is PANC-1 cells. The assay is described as above. The following applies: Homo sapiens, read-out: EC50(nM), killing of PANC-1 cells. The procedure:
as §1, §2

Assay [3] concerns HCC1806 cells. Described as above. The following applies: Homo sapiens, HCC1806, 72 h; 7500 cells/well, 3 days; read-out: EC50(nM), killing of HCC1806 cells. As to the method:
as §1, §2

In assay [4] the test system is NCl-H358 cells. Described as above. The following applies: Homo sapiens, read-out: EC50(nM), killing of NCl-H358 cells. The procedure: as §1, §2
In assay [5] the test system is HT29 cells. The assay is described as above. The note with it: Homo sapiens, HT-29, CCK8; read-out: EC50(nM), killing of HT29 cells. As to the method:
as §1, §2

Assay [6] has as its system NUCG-4. Briefly: Assay II of bioactive molecules on cell viability in vitro (CCK8). The following applies: CCK8, 3-4 days. The procedure:
(§3) Tumor cells NUCG-4, PC-9, HT29, NCI-H358, KYSE520, A431 and A549 were first cultured; the bioactive molecules or fragments of the present disclosure were co-cultured with tumor cells, and then CCK8 reagent (Dojindo Laboratories (Shanghai), Cat: CK04, Lot: JJ744) was added, and the activity of dehydrogenase in mitochondria was detected by reading (detection wavelength 450 nm) on a microplate reader (manufacturer: Molecular Devices, model: SpectraMax M2), to evaluate the inhibitory effect of bioactive molecules on cell proliferation.
(§4) In vitro cell viability assay method: the tumor cells were digested by conventional methods using trypsin, and cells in tube were collected and counted, and then resuspended in the corresponding assay media (containing 2% FBS), which was added to a 96-well plate at 5000-10000 cells/well. Bioactive molecules were diluted with DMSO, and then 100 μL was added to a 96-well plate, the initial concentration was 10 μM, followed by 3-fold serial dilution (12 concentration gradients). The plate was incubated for 3-4 days at 37° C. under 5% CO2. Then, 20 μL of CCK8 reagent was added to each well, and the reaction was carried out for 2-6 h. The plate was read on a microplate reader (detection wavelength was 450 nm).

The subject of assay [7] is A549. The assay is described as above. The note with it: Homo sapiens, CCK8, 3-4 days. The procedure:
as §3, §4

Assay [8] concerns KYSE520. The assay is described as above. The following applies: Homo sapiens, KYSE-520; CCK8, 3-4 days. The procedure: as §3, §4
Assay [9] relates to NCI-H358. The assay is described as above. The note with it: Homo sapiens, CCK8, 3-4 days. The procedure:
as §3, §4

The subject of assay [10] is A431. The assay is described as above. The following applies: Homo sapiens, A-431; CCK8, 3-4 days. The procedure: as §3, §4
Assay [11] relates to PC-9. The assay is described as above. The following applies: Homo sapiens, CCK8, 3-4 days. As to the method: as §3, §4
Assay [12] has as its system HT29. The description is as above. The following applies: Homo sapiens, HT-29; CCK8, 3-4 days. As to the method: as §3, §4

As for `CC[C@@]1(O)C(=O)OCc2c1cc1n(c2=O)Cc2c-1nc1cc3c(cc1c2CCCO)OCO3` [Example A1.9, (S)-7-ethyl-7-hydroxy-14-(3-hydroxypropyl)-10,13-dihydro-11H-[1,3]dioxolo[4,5-g]pyrano[3′,4′:6,7]indolizino[1,2-b]quinolin-8,11(7H)-dione], the EC50 in assay [1] was 30.4 nM; in assay [2] it was 94.5 nM; in [3], 1.9 nM; in assay [4] it was 60.8 nM; in assay [5], 57.5 nM; in [6], 8.73 nM. Besides, the EC50 was determined as 65.9 nM in assay [7]; 49.6 nM in [8]; 46.2 nM in [9]; 5.71 nM in assay [10]; 2.06 nM in [11]; 20.3 nM in assay [12].
